{"source": "patent US20250000877A1", "about": "“COMPOSITION CONTAINING TAURODEOXYCHOLIC ACID OR PHARMACEUTICALLY ACCEPTABLE SALT THEREOF AS ACTIVE INGREDIENT FOR PREVENTING OR TREATING VIRAL INFECTIOUS DISEASES” (SHAPERON INC., priority 2021, published 2025)", "key": {"[1]": {"test_system": "influenza virus CA04 (human H1N1)", "assay": "Lung lesions / histopathological scoring in influenza virus-infected animal model", "format": "in vivo, mice", "details": "for pathological scoring of lung lesions: score 0-4 per Table 2", "method": "Specifically, female BLAB/C mice aged 7 weeks were purchased and allowed to acclimate for one week before the experiments commenced. The experimental animals were housed under conditions of 22±2° C. temperature, 55±5% relative humidity, and a 12-hour light-dark cycle. Water was provided ad libitum, and sterilized feed was freely accessible.\nNext, as shown in the schematic diagram of FIG. 1, influenza virus CA04 (human H1N1) was intranasally inoculated at a concentration of 2LD50 (30 μl/mouse), and the drug was administered by dividing into four groups as shown in [Table 1] below. The positive control group was administered dexamethasone, an anti-inflammatory drug, as a drug, and the experimental group was administered HY209 as a low dose (1 mpk) or a high dose (4 mpk) as a drug. The drug was administered intraperitoneally at a dose of 100 μl/mouse on the third day after virus infection. In addition, lung tissues were separated and stored after autopsy of each group on the 7th day (7 dpi), 10th day (10 dpi), and 11th day (11 dpi) of virus infection.\nSpecifically, each of the test groups of Example 1 was autopsied on the 7th day (7 dpi), 10th day (10 dpi), and 11th day (11 dpi) of viral infection, and then the lungs were separated. The separated lung lesions were visually confirmed (FIGS. 3a to 3c), and lung lesions were scored according to the pathological scoring criteria of Table 2 below, and then graphed (FIGS. 4a and 4b)."}, "[2]": {"test_system": "IL-1β", "format": "in vivo, mice"}, "[3]": {"details": "7 dpi, 1 mpk intraperitoneally from DPI 3, virus infection group G1 2.8±0.84"}, "[4]": {"details": "11 dpi, 1 mpk intraperitoneally from DPI 3, virus infection group G1 4±0"}}, "note": "Like-named read-outs stand apart in the source and are kept apart here."}
{"smiles": "C[C@@H]1C[C@H]2[C@@H]3CCC4=CC(=O)C=C[C@]4(C)[C@@]3(F)[C@@H](O)C[C@]2(C)[C@@]1(O)C(=O)CO", "note": "[dexamethasone, reference compound]", "values": [{"measurement": "pathological scoring of lung lesions", "setting": "[1]; [3]", "value": "1.8±0.45"}, {"measurement": "pathological scoring of lung lesions", "setting": "[1]; [4]", "value": "2.5±0.71"}]}
{"smiles": "C[C@H](CCC(=O)NCCS(=O)(=O)O)[C@H]1CC[C@H]2[C@@H]3CC[C@@H]4C[C@H](O)CC[C@]4(C)[C@H]3C[C@H](O)[C@]12C", "note": "[HY209, Sodium taurodeoxycholate]", "values": [{"measurement": "pathological scoring of lung lesions", "setting": "[1]; [3]", "value": "2.6±0.55"}, {"measurement": "reduction in pathological scores compared to the virus infection group (G1)", "setting": "[1]; 7 dpi, 4 mpk (G4), P=0.046", "value": "statistically significant reduction"}, {"measurement": "pathological scoring of lung lesions", "setting": "[1]; 7 dpi, 4 mpk intraperitoneally from DPI 3, virus infection group G1 2.8±0.84", "value": "1.8±0.45"}, {"measurement": "reduction in pathological scores compared to the virus infection group (G1)", "setting": "[1]; 11 dpi, 1 mpk (G2 P=0.002, G3 P=0.013)", "value": "statistically significant reduction"}, {"measurement": "pathological scoring of lung lesions", "setting": "[1]; [4]", "value": "2.8±0.84"}, {"measurement": "reduction in pathological scores compared to the virus infection group (G1)", "setting": "[1]; 11 dpi, 4 mpk (G4), P=0.0005", "value": "statistically significant reduction"}, {"measurement": "pathological scoring of lung lesions", "setting": "[1]; 11 dpi, 4 mpk intraperitoneally from DPI 3, virus infection group G1 4±0", "value": "2.29±0.76"}, {"measurement": "production of inflammatory cells in the lungs", "setting": "[1]; low (1 mpk) or high (4 mpk) dose groups compared to the virus infection group, summary statement", "value": "reduced"}, {"measurement": "IL-1β levels", "setting": "[2]; […], serum samples, HY209 1 mpk (G3) vs G1", "value": "significant decrease"}, {"measurement": "production of inflammatory cytokine IL-1β in the lungs", "setting": "[2]; mouse, in vivo", "value": "reduced"}, {"measurement": "IL-1β levels in lung tissue samples", "setting": "[2]; mouse, in vivo, 1 mg/kg", "value": "significant decrease"}, {"measurement": "IL-1β levels in lung tissue samples", "setting": "[2]; mouse, in vivo, 4 mg/kg", "value": "significant decrease"}]}
